Entries after “also recorded” stand apart in the source; their conditions may differ.
How the values were obtained:
MMP-2 = experiment: Zymography of U937 cell supernatants, MMP-2; type: cell-based, human
Procedure: Human pro-monocytic U937 cells were obtained from American Type Culture Collection (Manassas, Va.) and grown in RPMI medium supplemented with 10% FBS. U937 cells were plated in six-well plates at a density of 5×10^6 cells/ml. The cells were then stimulated with 10 ng/ml TNF-α, in the presence or absence of either increasing concentrations of PPS (10-100 μg/ml) or heparin (100 μg/ml), and incubated at 37° C. for 3 hours. Following stimulation, cells were placed in 0.1% BSA-serum-free medium for 16-18 hours. The media was then collected, centrifuged, and supernatants were stored at −80° C. for the assessment of MMP activity. The cell number was determined by direct cell counting.
MMP activity in aortic extracts and conditioned media from monocytes was assessed, as previously described (Jacot T A, et al., Lab Invest. 1996; 75:791-79). Briefly, aortic segments were homogenized and extracted in RIPA buffer (25 mM Tris, pH 7.4, 150 mM KCl, 5 mM EDTA, 1% Nonidet P-40, 0.5% sodium deoxycholate, and 0.1% SDS). Insoluble material was precipitated by centrifugation, and soluble extracts were collected and stored at −20° C. for further analysis. For in vitro experiments, cell supernatants were centrifuged to remove cellular debris, and diluted appropriately to normalize for cell number. Aortic extracts and conditioned media were then mixed with sample buffer (1% SDS, 0.08 M Tris pH 6.8, 4% glycerol, and 0.006% bromophenol blue), and loaded onto a 10% gelatin polyacrylamide gel, and processed as described (Jacot T A, et al., Lab Invest. 1996; 75:791-79). For reverse zymography, samples were loaded onto a 15% gelatin polyacrylamide gel containing 0.5% porcine gelatin and 6 μg recombinant gelatinase A, and processed as described (Elliot S J, et al., J Am Soc Nephrol. 1999; 10: 62-68).

monocytic cells = experiment: Cell viability by trypan blue staining; type: cell-based, human
WHHL rabbits = details: rabbit, in vivo, po
Procedure: 3-month-old female WHHL rabbits, obtained from the Institute for Experimental Animals, Kobe University School of Medicine (Shiomi M, et al., Arterioscler Thromb 1994; 14: 931-937), were fed a standard diet supplemented with 0.5% cholesterol for 45 days. […] Twenty rabbits with established lesions were randomized into two groups, one (PPS group) receiving PPS (30 mg/kg BW daily) added to the drinking water, and the other (Control group) receiving tap water for the next 30 days. […] After 30 days, the rabbits were anesthetized with ketamine hydrochloride and xylazine (60 mg and 6 mg/kg BW, respectively), and exsanguinated. Five from each group were perfusion-fixed with 4% phosphate-buffered formaldehyde solution through the femoral vein.

TNFα mRNA = experiment: PCR of TNFα mRNA in kidney; type: in vivo, mouse; details: PPS treated 22 month-old diabetic mice, up to 40 PCR cycles
Procedure: (§1) mRNA levels were corrected by the levels of β-actin or GAPDH mRNA. The expression of TNFα mRNA in kidney was determined by both a real time and a regular PCR using the primer of forward, 5′-[…]-3′ (SEQ ID NO: 17), reverse, 5′-[…]-3′ (SEQ ID NO: 18). GAPDH and β-actin mRNA levels were measured in the same sample.

[1] = tested on: MCP-1, RANTES, CXCL-1 mRNA; experiment: Real-time PCR of chemokine mRNA in renal cortex; type: in vivo, mouse; details: PPS treated 22 month-old diabetic mice; P<0.01 vs. DN
Procedure: Total RNA was isolated from renal cortex using a PureYield RNA Midiprep kit (Promega, Madison, Wis.). The preparation was free of DNA contamination and 500 ng of total RNA from each sample was reverse-transcribed as previously described (Zheng F, Striker G E, Esposito C, Lupia E, Striker L J. Kidney Int 1998, 54:1999-2007; Zheng F, et al., Am Pathol 2003, 162:1339-1348). The levels of MCP-1 (monocyte chemoattractant protein-1), CXCL1 (c-x-c motif ligand 1), MIP2 (macrophage inflammatory protein 2), RANTES (regulated on activation, normal T cell expressed and secreted), ICAM-1 ([…] adhesion molecule 1), GRP78 (glucose regulatory protein 78), CHOP, and IL-6 (interleukin 6) mRNA were determined by real-time polymerase chain reaction (PCR). The primers used for the measurement were:
as §1

[2] = U937 cells, dose-response experiments

bleeding (WHHL rabbits): not observed
Substance: pentosan polysulfate [PPS]
MMP-2 activity, reduction by PPS treatment (MMP-2; U937 cells stimulated with 10 ng/ml TNF-α, 100 μg/ml PPS, P<0.05): 37.73%±12.17% | concentration at which the PPS effect on MMP activity was evident (MMP-2; [2]): 25 µg/mL | concentration at which the PPS effect on MMP activity was maximal (MMP-2; [2]): 75 to 100 µg/mL | MMP-2 activity, decrease by PPS treatment (MMP-2; unstimulated U937 cells, 100 μg/ml PPS, figure data as percent of control, P<0.01): 45.40%±9.68% | effect on cell viability (monocytic cells): no effect | TNFα mRNA expression in the kidneys (TNFα mRNA): completely prevented the upregulation; also recorded: absent | mRNA levels of MCP-1, RANTES, and CXCL-1 in renal cortices [1]: levels similar to 22 month-old non-diabetic

Source: patent US8871741B2, “Inhibition of TNF-α induced activation of NFKB by pentosan polysulfate” (Icahn School of Medicine at Mount Sinai, priority 2010, dated 2014)
